Assay results: patent US20140357633A1, “COMPOUNDS FOR INHIBITING THE INTERACTION OF BCL2 WITH BINDING PARTNERS” (NOVARTIS AG, priority 2011, published 2014)

Tests used:
[1] = target: BCL-2 (binding to BAK peptide) (Homo sapiens, UniProt P10415); assay: SPR (Biacore) solution inhibition assay, BCL-2 binding to immobilized BAK peptide; conditions: biotinylated BAK peptide surface, 56 nM BCL-2, 25° C.; range = high and low IC50 values from multiple experiments; read-out: BCL2_SPR IC50 BAK
From the text: (§1) The present method includes utility of a Surface plasmon resonance (SPR)-based biosensor (Biacore™′ GE Healthcare, Uppsala, Sweden) to characterize BCL-2 inhibitors.
(§2) Biacore™ utilizes the phenomenon of surface plasmon resonance (SPR) to detect and measure binding interactions. In a typical Biacore experiment, one of the interacting molecules (ligand) is immobilized on a flexible dextran matrix while the interacting partner (analyte) is allowed to flow across that surface. A binding interaction results in an increase in mass on the sensor surface and a corresponding direct change in the refractive index of the medium in the vicinity of the sensor surface. Changes in refractive index or signal are recorded in resonance units (R.U.) Signal changes due to association and dissociation of complexes are monitored in a non-invasive manner, continuously and in real-time, the results of which are reported in the form of a sensorgram.
(§3) The SPR assay is configured to examine solution inhibition of BCL-2 binding to peptide derivatized sensor surfaces to generate IC50 values as a measure of inhibitor potency.
(§4) Biacore™ A100 (GE Healthcare, Uppsala, Sweden) was used to conduct all experiments reported herein. Sensor surface preparation and all interaction analyses experiments were performed at 25° C. Reagents were purchased from GE Healthcare. Running buffer containing 10 mM Hepes, pH7.4, 150 mM sodium chloride, 1.25 mM Dithiothreitol, 3% Dimethyl sulfoxide and 0.05% polysorbate 20 were utilized throughout all analyses.
(§5) Biotinylated BAK, BAD and NOXA peptides were diluted to 10 nM in running buffer and captured onto a sensor surface pre-derivatized with streptavidin (sensor chip SA) to peptide surface densities in the range 50-100 R.U. Peptide captured surfaces were blocked with 500 μM PEO2-Biotin.
(§6) Interaction analyses were performed by first equilibrating each sample within a 6 point three fold compound dilution series in the range 16 μM to […] with 56 nM BCL-2 for one hour during instrument start-up procedures. Protein compound mixtures were then injected over each peptide surface in parallel for 60 seconds at a flow-rate of 30 μL/min. 56 nM BCL-2 control samples were also prepared and run at regular intervals during the assay. Surface regeneration was performed at the end of each analysis cycle by two 30 second injections of 10 mM Glycine, pH 2.5, 1M Sodium Chloride, 0.05% polysorbate 20. Samples and control compound samples were run in duplicate and controls are also run at regular intervals during the assay to monitor surface and assay performance.
(§7) Data analyses are carried out using Biacore™ A100 evaluation software v1.1 to validate assay quality. Binding level report points were used relative to BCL-2 control samples to calculate % inhibition values for each compound protein mixture. […] The range of data shown in table 1 represents the high and low IC50 values obtained from multiple experiments.

[2] = target: BCL-2 (binding to BAD peptide) (Homo sapiens, UniProt P10415); assay: SPR (Biacore) solution inhibition assay, BCL-2 binding to immobilized BAD peptide; conditions: biotinylated BAD peptide surface, 56 nM BCL-2, 25° C.; range = high and low IC50 values from multiple experiments; read-out: BCL2_SPR IC50 BAD
Chain of BCL-2 (binding to BAD peptide) (P10415 whole entry): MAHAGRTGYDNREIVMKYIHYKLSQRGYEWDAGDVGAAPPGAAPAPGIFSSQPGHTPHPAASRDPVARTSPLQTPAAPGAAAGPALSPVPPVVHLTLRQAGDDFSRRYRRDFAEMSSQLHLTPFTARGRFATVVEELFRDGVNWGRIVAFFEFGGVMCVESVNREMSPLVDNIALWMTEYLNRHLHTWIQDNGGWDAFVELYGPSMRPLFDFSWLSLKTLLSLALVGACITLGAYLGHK
From the text: as §1, §2, §3, §4, §5, §6, §7

Chain of BCL-2 (binding to BAK peptide) (P10415 whole entry): as above

SMILES	IC50 [1] [µM]	IC50 [2] [µM]
CCCCN(CCCC)C(=O)c1cc(C)n(-c2ccc(NC(=O)C3CC(=O)N(Cc4ccccc4)C3)cc2C(=O)N2Cc3ccccc3C[C@H]2CO)n1 (stereo partly shown) [Example 101]	0.114 to 0.15	0.13 to 0.167
CCCCN(CCCC)C(=O)c1cc(C)n(-c2ccc(NC(=O)C(Cc3ccccc3)C(=O)O)cc2C(=O)N2Cc3ccccc3C[C@H]2CO)n1 (stereo partly shown) [Example 34]	0.0634 to 0.0722	0.0676 to 0.0678
CCCCN(CCCC)C(=O)c1cc(C)n(-c2ccc(NC(=O)C3(c4ccccc4)CC3)cc2C(=O)N2Cc3ccccc3C[C@H]2CO)n1 [Example 30]	0.204 to 0.24	0.252 to 0.267
CCCCN(CCCC)C(=O)c1cc(C)n(-c2ccc(NC(=O)Oc3ccccc3)cc2C(=O)N2Cc3ccccc3C[C@H]2CO)n1 [Example 10]	0.283 to 0.308	0.501 to 0.522
CCCCN(CCCC)C(=O)c1cc(C)n(-c2ccc(NC(=O)c3cc(C(C)C)nn3C)cc2C(=O)N2Cc3ccccc3C[C@H]2CO)n1 [Example 47]	0.586 to 0.6	0.522 to 0.594
CCCCN(CCCC)C(=O)c1cc(C)n(-c2ccc(NC(=O)C(Cc3ccccc3)(Cc3ccccc3)C(=O)O)cc2C(=O)N2Cc3ccccc3C[C@H]2CO)n1 [Example 26]	0.0437 to 0.0545	0.046 to 0.0631
CCCCN(CCCC)C(=O)c1cc(C)n(-c2ccc(NC(=O)CCCOCc3ccccc3)cc2C(=O)N2Cc3ccccc3C[C@H]2CO)n1 [Example 133]	0.31 to 0.36	0.41 to 0.438
CCCCN(CCCC)C(=O)c1cc(C)n(-c2ccc(NC(=O)OC)cc2C(=O)N2Cc3ccccc3C[C@H]2CO)n1 [Example 12]	0.567 to 0.575	0.619 to 0.892
CCCCN(CCCC)C(=O)c1cc(C)n(-c2ccc(NC(=O)c3cc(OC)ccc3O)cc2C(=O)N2Cc3ccccc3C[C@H]2CO)n1 [Example 153]	0.393 to 0.448	0.438 to 0.511
CCCCN(CCCC)C(=O)c1cc(C)n(-c2ccc(NC(=O)Cc3ccc(F)cc3)cc2C(=O)N2Cc3ccccc3C[C@H]2CO)n1 [Example 98]	0.244 to 0.267	0.302 to 0.306
CCCCN(CCCC)C(=O)c1cc(C)n(-c2ccc(NC(=O)C(C)CC(=O)O)cc2C(=O)N2Cc3ccccc3C[C@H]2CO)n1 (stereo partly shown) [Example 100]	0.127 to 0.129	0.172 to 0.174
CCCCN(CCCC)C(=O)c1cc(C)n(-c2ccc(NC(=O)Cc3ccc(OC)c(Cl)c3)cc2C(=O)N2Cc3ccccc3C[C@H]2CO)n1 [Example 96]	0.0712 to 0.076	0.0862 to 0.0915
CCCCN(CCCC)C(=O)c1cc(C)n(-c2ccc(NC(=O)Cc3ccc(OC)cc3)cc2C(=O)N2Cc3ccccc3C[C@H]2CO)n1 [Example 77]	0.0558 to 0.0643	0.0658 to 0.071
CCCCN(CCCC)C(=O)c1cc(C)n(-c2ccc(NC(=O)OCC)cc2C(=O)N2Cc3ccccc3C[C@H]2CO)n1 [Example 11]	0.55 to 0.557	0.591 to 0.599
CCCCN(CCCC)C(=O)c1cc(C)n(-c2ccc(NC(=O)c3cc(OC)cc([N+](=O)[O-])c3OC)cc2C(=O)N2Cc3ccccc3C[C@H]2CO)n1 [Example 132]	0.246 to 0.248	0.332 to 0.338
CCCCN(CCCC)C(=O)c1cc(C)n(-c2ccc(NC(=O)Cc3ccc(OC)c(F)c3)cc2C(=O)N2Cc3ccccc3C[C@H]2CO)n1 [Example 97]	0.146 to 0.168	0.201 to 0.21
CCCCN(CCCC)C(=O)c1cc(C)n(-c2ccc(NC(=O)c3ccc(Oc4ccc(F)cc4)cc3)cc2C(=O)N2Cc3ccccc3C[C@H]2CO)n1 [Example 91]	3.74 to 4.13	> 16
CCCCN(CCCC)C(=O)c1cc(C)n(-c2ccc(NC(=O)Cc3cccc(C#N)c3)cc2C(=O)N2Cc3ccccc3C[C@H]2CO)n1 [Example 160]	0.18 to 0.193	0.229 to 0.238
CCCCN(CCCC)C(=O)c1cc(C)n(-c2ccc(NC(=O)c3nn(C)c4ncccc34)cc2C(=O)N2Cc3ccccc3C[C@H]2CO)n1 [Example 45]	0.499 to 0.556	0.689 to 0.773
CCCCN(CCCC)C(=O)c1cc(C)n(-c2ccc(NC(=O)C(CCNC(C)=O)c3ccccc3)cc2C(=O)C2Cc3ccccc3C[C@H]2CO)n1 (stereo partly shown) [Example 74]	0.0808 to 0.0814	0.0951 to 0.096
CCCCN(CCCC)C(=O)c1cc(C)n(-c2ccc(NC(=O)c3ccccc3COc3ccccc3)cc2C(=O)N2Cc3ccccc3C[C@H]2CO)n1 [Example 92]	1.12 to 1.18	1.27 to 1.35
CCCCN(CCCC)C(=O)c1cc(C)n(-c2ccc(NC(=O)c3cc4ccccc4cn3)cc2C(=O)N2Cc3ccccc3C[C@H]2CO)n1 [Example 123]	0.249 to 0.279	0.293 to 0.339
CCCCN(CCCC)C(=O)c1cc(C)n(-c2ccc(NC(=O)CSc3cc(C)c(Cl)cc3Cl)cc2C(=O)N2Cc3ccccc3C[C@H]2CO)n1 [Example 129]	0.0707 to 0.0771	0.0895 to 0.0929
CCCCN(CCCC)C(=O)c1cc(C)n(-c2ccc(NC(=O)c3cccc(Cl)c3O)cc2C(=O)N2Cc3ccccc3C[C@H]2CO)n1 [Example 83]	0.0653 to 0.0697	0.0816 to 0.0891
CCCCN(CCCC)C(=O)c1cc(C)n(-c2ccc(NC(=O)[C@@H]3COc4ccccc4O3)cc2C(=O)N2Cc3ccccc3C[C@H]2CO)n1 [Example 65]	0.137 to 0.14	0.172 to 0.173
CCCCN(CCCC)C(=O)c1cc(C)n(-c2ccc(NC(=O)C(CC(=O)OCC)c3ccccc3)cc2C(=O)N2Cc3ccccc3C[C@H]2CO)n1 (stereo partly shown) [Example 53]	0.162	0.181 to 0.187
CCCCN(CCCC)C(=O)c1cc(C)n(-c2ccc(NC(=O)c3cc(SC)ccc3Cl)cc2C(=O)N2Cc3ccccc3C[C@H]2CO)n1 [Example 89]	0.222 to 0.231	0.282 to 0.288
CCCCN(CCCC)C(=O)c1cc(C)n(-c2ccc(NC(=O)Cc3cccc(Br)c3)cc2C(=O)N2Cc3ccccc3C[C@H]2CO)n1 [Example 138]	0.0438 to 0.053	0.0561 to 0.0608

The next lines start with the values.

IC50 [1] [µM]	IC50 [2] [µM]	SMILES
0.562 to 0.66	0.671 to 0.708	CCCCN(CCCC)C(=O)c1cc(C)n(-c2ccc(NC(=O)[C@H](C)c3ccccc3)cc2C(=O)N2Cc3ccccc3C[C@H]2CO)n1 [Example 113]
0.112 to 0.133	0.138 to 0.149	CCCCN(CCCC)C(=O)c1cc(C)n(-c2ccc(NC(=O)CCSc3ccc4ccccc4c3)cc2C(=O)N2Cc3ccccc3C[C@H]2CO)n1 [Example 64]
0.0635 to 0.0775	0.0887 to 0.103	CCCCN(CCCC)C(=O)c1cc(C)n(-c2ccc(NC(=O)CNC(=O)c3cccnc3)cc2C(=O)N2Cc3ccccc3C[C@H]2CO)n1 [Example 125]
0.0675 to 0.0714	0.0821 to 0.0888	CCCCN(CCCC)C(=O)c1cc(C)n(-c2ccc(NC(=O)C(CC(N)=O)c3ccccc3)cc2C(=O)N2Cc3ccccc3C[C@H]2CO)n1 (stereo partly shown) [Example 117]
0.238 to 0.277	0.318 to 0.326	CCCCN(CCCC)C(=O)c1cc(C)n(-c2ccc(NC(=O)c3ncccc3O)cc2C(=O)N2Cc3ccccc3C[C@H]2CO)n1 [Example 62]
0.098 to 0.134	0.0959 to 0.129	CCCCN(CCCC)C(=O)c1cc(C)n(-c2ccc(NC(=O)Cc3ccccc3)cc2C(=O)N2Cc3ccccc3C[C@H]2CO)n1 [Example 5]
0.0952 to 0.0967	0.111 to 0.12	CCCCN(CCCC)C(=O)c1cc(C)n(-c2ccc(NC(=O)CCc3nc(-c4ccccc4)no3)cc2C(=O)N2Cc3ccccc3C[C@H]2CO)n1 [Example 60]
0.339 to 0.358	0.348 to 0.392	CCCCN(CCCC)C(=O)c1cc(C)n(-c2ccc(NC(=O)CS(=O)(=O)c3ccccc3)cc2C(=O)N2Cc3ccccc3C[C@H]2CO)n1 [Example 152]
1.04 to 1.49	1.42 to 1.46	CCCCN(CCCC)C(=O)c1cc(C)n(-c2ccc(NC(=O)c3sccc3C)cc2C(=O)N2Cc3ccccc3C[C@H]2CO)n1 [Example 81]
0.0502 to 0.0531	0.0607 to 0.0614	CCCCN(CCCC)C(=O)c1cc(C)n(-c2ccc(NC(=O)CCC3COc4ccccc43)cc2C(=O)N2Cc3ccccc3C[C@H]2CO)n1 (stereo partly shown) [Example 130]
2.62 to 3.49	3.45	CCCCN(CCCC)C(=O)c1cc(C)n(-c2ccc(NC(=O)COc3cccc(OC)c3)cc2C(=O)N2Cc3ccccc3C[C@H]2CO)n1 [Example 22]
0.139 to 0.153	0.164 to 0.171	CCCCN(CCCC)C(=O)c1cc(C)n(-c2ccc(NC(=O)Cc3cccnc3)cc2C(=O)N2Cc3ccccc3C[C@H]2CO)n1 [Example 118]
0.0544 to 0.0585	0.0612 to 0.0669	CCCCN(CCCC)C(=O)c1cc(C)n(-c2ccc(NC(=O)Cc3noc4ccccc34)cc2C(=O)N2Cc3ccccc3C[C@H]2CO)n1 [Example 121]
